Values of other authors in US7323476B2, “Myriceric acid derivatives for the treatment of cancer, cardiovascular and inflammatory diseases” (SaviPu Pharmaceuticals, priority 2006, dated 2008).

Tests used:
NF-κB = conditions: qualitative statement on natural products of Fig. R
endothelin receptor = conditions: qualitative, earlier studies

Compound | inhibition of NF-κB (NF-κB) | binding to the endothelin receptor (endothelin receptor)
COc1c(O)cc(O)c2c(=O)cc(-c3ccccc3)oc12 [wogonin] | good activity | –
Theaflavin-3,3′-digallate | potent inhibitor | –
myriceric acid A [PM2011A] | – | already been demonstrated
